The results in this text go back to patent US9856240B2, “Compounds that modulate intracellular calcium” (CalciMedica, Inc., priority 2011, dated 2018).

The target of assay [1] is T1, recombinant human STIM1 and Orai1 (HEK-293 cells) (Homo sapiens, UniProt Q96D31).
T1 construct: expressed in transfected cells; host or cells: HEK-293 cells stably expressing both proteins
In words: Fluorescence-based assay of store-operated calcium entry in Orai1/STIM1 stable cells. The class given is cell-based. As to conditions: for IC50: FLIPR fluo-4, read-out: Orai1/STIM1 (IC50, μmol); for Orai1/STIM1 (IC50, μmol): FLIPR fluo-4. Set-up: key to Orai1/STIM1 (IC50, μmol): A < 0.6 μmol; 0.6 μmol ≦ B ≦ 1.2 μmol; C > 1.2 μmol; — = no fit. The protocol:
A. Fluorescence-Based Assay of Store-Operated Calcium Entry in Orai1/STIM1 Stable Cells.
Cells stably expressing recombinant human STIM1 and Orai1 are generated by transfecting a human Orai1 expression plasmid (pcDNA3.1-Orai1-cmyc) into HEK-293 cells stably overexpressing human STIM1 (Roos et al. 2005 JCB 169(3): 435-445). Colonies of cells stably expressing both STIM1 and Orai1 proteins are selected and then subcloned by limiting dilution. Cells were cultured at 37° C./6% CO2 in complete medium with 10% FBS and appropriate selection markers.
The day prior to performing the assay Orai1/STIM1 stable cells are plated in 50 μL of complete medium at 90-95% confluence in a 384 well plate. Cells are grown at 37° C./6% CO2 overnight. On the day of the assay, 1.5 μM fluo-4-AM (Invitrogen) in complete medium is added to the cells, which are then incubated for 1 hour at RT. Cells are washed once in Ca^2+-free HBSS (Hank's buffered saline solution) and 35 μl of Ca^2+-free HBSS is added to each well. Test compounds are added to wells in a 10 μL Ca^2+-free HBSS solution, prepared at 4.5× the desired final concentration, and incubated for 30 minutes at RT. The initial baseline fluorescence signal is then measured with a FLIPR^384 (Molecular Devices) plate reader. Calcium entry is initiated by adding 5 μl of 10× CaCl2 (10 mM) in HBSS, and changes in cellular fluorescence are measured with the FLIPR^384 plate reader. In each well, the magnitude of the fluorescence signal as a result of calcium entry into the cell is determined by calculating the difference between the peak fluorescence signal measured after calcium addition and the initial baseline fluorescence signal (designated Peak-Basal). IC50 values are typically calculated as the concentration that inhibited 50% of the Peak-Basal signal (Table A).

The test system of assay [2] is store-operated calcium entry in RBL-2H3 cells. In words: Fluorescence-based assay of store-operated calcium entry in RBL-2H3 cells. The class given is cell-based. To be noted: Rattus norvegicus, thapsigargin, FLIPR Fluo-4, read-out: RBL-2H3 (IC50, μmol). The protocol:
B. Fluorescence-Based Assay of Store-Operated Calcium Entry in RBL-2H3 Cells.
RBL-2H3 cells are obtained from ATCC and maintained in complete medium with 10% FBS at 37° C./6% CO2.
The day prior to performing the assay, RBL-2H3 cells are plated in 50 μL of complete medium in a 384 well plate. Cells are grown at 37° C./6% CO2 overnight and grow to 50-60% confluence by the next day. On the assay day, 1.5 μM Fluo-4-AM dye (Invitrogen) in complete medium is added and incubated for 1 hour at RT. Cells are washed twice in Ca^2+-free HBSS buffer and 35 μL Ca^2+-free HBSS buffer is added to each well. 10 μL of a test compound prepared in a Ca^2+-free HBSS solution at 4.5× of the desired concentration is added to a well and incubated for 5 minutes at RT. 10 μL of thapsigargin prepared in a Ca^2+-free HBSS solution at 5.5× of the desired concentration (5.5 uM) is added to each well and incubated for an additional 25 minutes. The initial baseline fluorescence signal is measured with a FLIPR^384 (Molecular Devices) plate reader. 5 μL of 12× calcium in HBSS (12 mM) is added and changes in cellular fluorescence are measured with the FLIPR^384 plate reader. In each well, the change in the fluorescent signal as a function of time due to calcium entry into the cell is determined by calculating the difference between the fluorescent signal measured 7 seconds after calcium addition and the initial baseline fluorescence signal at time zero (t=0). This parameter is designated Upslope. The IC50 value is calculated as the concentration at which 50% of the Upslope is inhibited.

T1 sequence (Q96D31 whole entry): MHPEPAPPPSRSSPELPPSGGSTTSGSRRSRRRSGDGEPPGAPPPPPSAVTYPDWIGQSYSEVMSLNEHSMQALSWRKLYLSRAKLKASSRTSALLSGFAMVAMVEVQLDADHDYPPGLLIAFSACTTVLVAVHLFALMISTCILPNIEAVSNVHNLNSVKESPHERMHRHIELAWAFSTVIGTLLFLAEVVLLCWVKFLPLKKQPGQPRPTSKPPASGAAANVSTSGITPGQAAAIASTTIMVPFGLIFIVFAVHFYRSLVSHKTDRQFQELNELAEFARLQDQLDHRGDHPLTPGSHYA

`Cn1cccc1C(=O)Nc1ccc(-c2cc3c(cc2Cl)OC(F)(F)O3)cn1` [Example 1, N-(5-(6-chloro-2,2-difluorobenzo[d][1,3]dioxol-5-yl)pyridin-2-yl)-1-methyl-1H-pyrrole-2-carboxamide]: the IC50 in assay [1] and in assay [2] was 0.6 to 1.2 µM throughout.

As for `Cc1nn(C)c(C(=O)Nc2ccc(-c3cc4c(cc3Cl)OC(F)(F)O4)cn2)c1Cl` [Example 2, 4-chloro-N-(5-(6-chloro-2,2-difluorobenzo[d][1,3]dioxol-5-yl)pyridin-2-yl)-1,3-dimethyl-1H-pyrazole-5-carboxamide], the IC50 in assay [1] and in assay [2] was > 1.2 µM throughout.

Take `Cn1nc(C(F)(F)F)c(Cl)c1C(=O)Nc1ccc(-c2cc3c(cc2Cl)OC(F)(F)O3)cn1` [Example 3, 4-chloro-N-(5-(6-chloro-2,2-difluorobenzo[d][1,3]dioxol-5-yl)pyridin-2-yl)-1-methyl-3-(trifluoromethyl)-1H-pyrazole-5-carboxamide]: the “Orai1/STIM1 (IC50, μmol)” value in assay [1] is on record as “—”. For the same molecule, in assay [2], the IC50 was < 0.6 µM.

For the molecule `Cn1ncc(C(=O)Nc2ccc(-c3cc4c(cc3Cl)OC(F)(F)O4)cn2)c1C(F)(F)F` [Example 4, N-(5-(6-chloro-2,2-difluorobenzo[d][1,3]dioxol-5-yl)pyridin-2-yl)-1-methyl-5-(trifluoromethyl)-1H-pyrazole-4-carboxamide], the “Orai1/STIM1 (IC50, μmol)” value in assay [1] is reported as “—”. The IC50 in assay [2] was > 1.2 µM.

As for `Cc1onc(C(=O)Nc2ccc(-c3cc4c(cc3Cl)OC(F)(F)O4)cn2)c1C` [Example 5, N-(5-(6-chloro-2,2-difluorobenzo[d][1,3]dioxol-5-yl)pyridin-2-yl)-4,5-dimethylisoxazole-3-carboxamide], the “Orai1/STIM1 (IC50, μmol)” value in assay [1] is “—”. Also, the IC50 in assay [2] lay within 0.6 to 1.2 µM.

As to `CCn1nc(C)cc1C(=O)Nc1ccc(-c2cc3c(cc2Cl)OC(F)(F)O3)cn1` [Example 6, N-(5-(6-chloro-2,2-difluorobenzo[d][1,3]dioxol-5-yl)pyridin-2-yl)-1-ethyl-3-methyl-1H-pyrazole-5-carboxamide], the IC50 in assay [1] and in assay [2] was > 1.2 µM in each case.

Regarding `Cc1cc(C(=O)Nc2ccc(-c3cc4c(cc3Cl)OC(F)(F)O4)cn2)n(C)n1` [Example 7, N-(5-(6-chloro-2,2-difluorobenzo[d][1,3]dioxol-5-yl)pyridin-2-yl)-1,3-dimethyl-1H-pyrazole-5-carboxamide], the results for the IC50 in assay [1] and in assay [2] were 0.6 to 1.2 µM and > 1.2 µM, respectively.

As to `Cn1cc(Cl)c(C(=O)Nc2ccc(-c3cc4c(cc3Cl)OC(F)(F)O4)cn2)n1` [Example 8, 4-chloro-N-(5-(6-chloro-2,2-difluorobenzo[d][1,3]dioxol-5-yl)pyridin-2-yl)-1-methyl-1H-pyrazole-3-carboxamide], the IC50 in assay [1] and in assay [2] was > 1.2 µM in each case.

Turning to `Cn1ncc(Cl)c1C(=O)Nc1ccc(-c2cc3c(cc2Cl)OC(F)(F)O3)cn1` [Example 9, 4-chloro-N-(5-(6-chloro-2,2-difluorobenzo[d][1,3]dioxol-5-yl)pyridin-2-yl)-1-methyl-1H-pyrazole-5-carboxamide], the IC50 is 0.6 to 1.2 µM in assay [1] and < 0.6 µM in assay [2].

In the case of `Cc1oncc1C(=O)Nc1ccc(-c2cc3c(cc2Cl)OC(F)(F)O3)cn1` [Example 10, N-(5-(6-chloro-2,2-difluorobenzo[d][1,3]dioxol-5-yl)pyridin-2-yl)-5-methylisoxazole-4-carboxamide], the “Orai1/STIM1 (IC50, μmol)” value in assay [1] is reported as “—”.

As to `Cc1noc(C)c1C(=O)Nc1ccc(-c2cc3c(cc2Cl)OC(F)(F)O3)cn1` [Example 11, N-(5-(6-chloro-2,2-difluorobenzo[d][1,3]dioxol-5-yl)pyridin-2-yl)-3,5-dimethylisoxazole-4-carboxamide], the IC50 in assay [1] and in assay [2] was < 0.6 µM throughout.

For `CCn1nccc1C(=O)Nc1ccc(-c2cc3c(cc2Cl)OC(F)(F)O3)cn1` [Example 12, N-(5-(6-chloro-2,2-difluorobenzo[d][1,3]dioxol-5-yl)pyridin-2-yl)-1-ethyl-1H-pyrazole-5-carboxamide], the IC50 in assay [1] and in assay [2] was 0.6 to 1.2 µM each time.

Turning to `O=C(Nc1ccc(-c2cc3c(cc2Cl)OC(F)(F)O3)cn1)c1ccnn1C(F)F` [Example 13, N-(5-(6-chloro-2,2-difluorobenzo[d][1,3]dioxol-5-yl)pyridin-2-yl)-1-(difluoromethyl)-1H-pyrazole-5-carboxamide], the IC50 in assay [1] is 0.6 to 1.2 µM; in assay [2], > 1.2 µM.

Regarding `CCc1nnsc1C(=O)Nc1ccc(-c2cc3c(cc2Cl)OC(F)(F)O3)cn1` [Example 14, N-(5-(6-chloro-2,2-difluorobenzo[d][1,3]dioxol-5-yl)pyridin-2-yl)-4-ethyl-1,2,3-thiadiazole-5-carboxamide], the IC50 in assay [1] and in assay [2] was < 0.6 µM each time.

For `Cc1nscc1C(=O)Nc1ccc(-c2cc3c(cc2Cl)OC(F)(F)O3)cn1` [Example 15, N-(5-(6-chloro-2,2-difluorobenzo[d][1,3]dioxol-5-yl)pyridin-2-yl)-3-methylisothiazole-4-carboxamide], the IC50 in assay [1] and in assay [2] was < 0.6 µM each time.

Consider `Cc1nc(C(=O)Nc2ccc(-c3cc4c(cc3Cl)OC(F)(F)O4)cn2)c(C(F)(F)F)o1` [Example 19, N-(5-(6-chloro-2,2-difluorobenzo[d][1,3]dioxol-5-yl)pyridin-2-yl)-2-methyl-5-(trifluoromethyl)oxazole-4-carboxamide], for which the “Orai1/STIM1 (IC50, μmol)” value in assay [1] was “—”.

As for `Cc1nc(C)c(C(=O)Nc2ccc(-c3cc4c(cc3Cl)OC(F)(F)O4)cn2)o1` [Example 21, N-(5-(6-chloro-2,2-difluorobenzo[d][1,3]dioxol-5-yl)pyridin-2-yl)-2,4-dimethyloxazole-5-carboxamide], the IC50 in assay [1] is > 1.2 µM.

Turning to `Cn1ncc(C(=O)Nc2cnc(-c3cc4c(cc3Cl)OC(F)(F)O4)cn2)c1C(F)(F)F` [Example 22, N-(5-(6-chloro-2,2-difluorobenzo[d][1,3]dioxol-5-yl)pyrazin-2-yl)-1-methyl-5-(trifluoromethyl)-1H-pyrazole-4-carboxamide], in assay [1], the “Orai1/STIM1 (IC50, μmol)” value was “—”.

Turning to `Cc1nn(C)c(C(=O)Nc2cnc(-c3cc4c(cc3Cl)OC(F)(F)O4)cn2)c1Cl` [Example 23, 4-chloro-N-(5-(6-chloro-2,2-difluorobenzo[d][1,3]dioxol-5-yl)pyrazin-2-yl)-1,3-dimethyl-1H-pyrazole-5-carboxamide], the “Orai1/STIM1 (IC50, μmol)” value in assay [1] is recorded as “—”.

In the case of `CCn1nc(C)cc1C(=O)Nc1cnc(-c2cc3c(cc2Cl)OC(F)(F)O3)cn1` [Example 26], the IC50 in assay [2] was > 1.2 µM.

As for `Cn1cc(Cl)c(C(=O)Nc2cnc(-c3cc4c(cc3Cl)OC(F)(F)O4)cn2)n1` [Example 28, 4-chloro-N-(5-(6-chloro-2,2-difluorobenzo[d][1,3]dioxol-5-yl)pyrazin-2-yl)-1-methyl-1H-pyrazole-3-carboxamide], in assay [1], the “Orai1/STIM1 (IC50, μmol)” value is on record as “—”.

For `Cc1oncc1C(=O)Nc1cnc(-c2cc3c(cc2Cl)OC(F)(F)O3)cn1` [Example 30, N-(5-(6-chloro-2,2-difluorobenzo[d][1,3]dioxol-5-yl)pyrazin-2-yl)-5-methylisoxazole-4-carboxamide], the “Orai1/STIM1 (IC50, μmol)” value in assay [1] is reported as “—”.

As to `Cc1cc2c(cc1-c1cnc(NC(=O)c3c(Cl)c(C)nn3C)cn1)OC(F)(F)O2` [Example 36, 4-chloro-N-(5-(2,2-difluoro-6-methylbenzo[d][1,3]dioxol-5-yl)pyrazin-2-yl)-1,3-dimethyl-1H-pyrazole-5-carboxamide], the “Orai1/STIM1 (IC50, μmol)” value in assay [1] is given as “—”.
